Laboratory results from publication PMC11926788, “Effect of SSR504734, a Selective Glycine Transporter Type 1 Inhibitor, on Seizure Thresholds, Neurotransmitter Levels, and Inflammatory Markers in Mice” (ACS Chemical Neuroscience, 2025).
Where a name gives a salt, the structure may show the parent alone. Read-outs that look alike come from different tables or passages of the source.

Columns and labels:
[1] = Pharmacokinetic study of SSR504734 in mice (serum and tissue concentrations by LC-MS/MS, noncompartmental analysis); assay type: in vivo
Experimental: SSR504734 was administered i.p. at the dose of 30 mg/kg, and mice were sacrificed by decapitation at 5, 15, 30, 60, 120, 240, and 480 min after dosing. The trunk blood samples (∼1 mL) were collected in polypropylene tubes and allowed to clot at room temperature. Subsequently, the blood was centrifuged at 5600 rpm for 10 min. Serum samples were collected in new tubes. Immediately after decapitation, brains and other tissues such as the liver, lungs, kidneys, heart, spleen, gut, and adipose were removed from the skull and washed with cold 0.9% NaCl. Samples were kept at −80 °C until the day of analysis.
Serum and tissue concentrations of SSR504734 in mice were quantified by a liquid chromatography tandem mass spectrometry (LC-MS/MS) method. Stock solutions of the studied compound were prepared in methanol at a concentration of 1 mg/mL. Working solutions were prepared by dilution of the standard solutions in acetonitrile/water 1:1 (v/v). Tissue homogenates were obtained by homogenization of each tissue in distilled water at a ratio of 1:4 (w/v) using a basic T10 ULTRA-TURRAX tissue homogenizer (IKA, Poland). Mouse serum and tissues, which were used to prepare standard samples and quality control (QC) samples, were harvested from untreated healthy animals after exsanguination. Standard and QC samples were prepared by adding 5 μL of working solutions of SSR504734 to 45 μL of mouse serum or 45 μL of tissue homogenates. Real serum and homogenate samples, QC samples, and standard samples were subjected to the same precipitation procedure. Briefly, 150 μL of 0.1% formic acid solution in acetonitrile containing pentoxifylline (PTX) as an internal standard (IS) at a concentration of 5 ng/mL was added to 50 μL of analyzed serum, homogenate, standard samples, or QC samples in Eppendorf tubes and mixed on a vortex mixer for 10 min (IKA Vibrax VXR, Germany). Subsequently, samples were centrifuged at 10,000 rpm for 10 min at room temperature (Eppendorf miniSpin centrifuge). 2 μL of supernatant was subjected to LC-MS/MS analysis using an Exion LC AC HPLC system coupled to a SCIEX QTRAP 4500 triple-quadrupole mass spectrometer (Danaher Corporation, Framingham, MA, US). Chromatographic separation was performed using a Hypersil Gold C18 analytical column (2.1 × 50 mm, 3 μm) (Thermo Scientific, USA) at 25 °C. The mobile phase consisting of water containing 0.1% formic acid and acetonitrile containing 0.1% formic acid (60:40, v/v) was pumped at a flow rate of 0.5 mL/min in an isocratic elution mode. All detections were performed in positive ion mode. The selected reaction monitoring (SRM) for the transitions was m/z 397.2 → 207.0 and m/z 397.2 → 174.2 (quantifier and qualifier) for SSR504734 and m/z 279 → 181 for IS. The optimal MS parameters for SSR504734 multiple reaction monitoring (MRM) transitions selected by continuous infusion of the standard solution at the rate of 7 μL/min using a Harvard infusion pump were as follows: the declustering potential was 120 V, the collision energy was 35.6 V, the entrance potential was 10 V, and the cell exit potential was 6 V. These parameters for IS were 60, 24, 10, and 6 V, respectively. An additional tuning optimization of gas flows and temperatures was performed by flow injection analysis. The ion source temperature was maintained at 450 °C, the ion spray voltage at 4000 V, the curtain gas (CUR) was set at 25 psi, the nebulizer (GS1) and TIS (GS2) gases at 40.0 and 50.0 psi, respectively, and the collision gas (CAD) at Medium.
Data acquisition and processing were carried out using Analyst 1.7 software. The calibration curves were constructed by plotting the ratio of the peak area of the analyte to the peak area of the IS vs the concentration of the analyte and generated by weighted (1/y) nonlinear regression analysis by fitting a quadratic formula. […]

[2] = system: TNFα, IL-6, IL-1β, TLR4, IL-10, IFN-γ, IL-18 in serum; experiment: Inflammatory markers in serum (ELISA); assay type: in vivo, mice; conditions: 14-day administration, 30 mg/kg i.p.
Experimental: ELISA kits were used to determine IL-1-β, IL-6, IL-10, TNF-α, and IFN-γ (EIAAB Science INC, Wuhan, Hubei, China, nos. E0563m, E0079m, E0056m, E0049m, E0133m, E0753m) and IL-18 (Biorbyt Ltd., Cambridge, United Kingdom, no. orb437211) in the liver homogenates and serum. All assays were performed according to the producer’s instructions. All samples were tested in triplicate.

[3] = mouse, ip, adipose, single 30 mg/kg i.p.
[4] = mouse, ip, brain, single 30 mg/kg i.p.
[5] = mouse, ip, gut, single 30 mg/kg i.p.
[6] = mouse, ip, heart, single 30 mg/kg i.p.
[7] = mouse, ip, kidneys, single 30 mg/kg i.p.
[8] = mouse, ip, liver, single 30 mg/kg i.p.
[9] = mouse, ip, lungs, single 30 mg/kg i.p.
[10] = mouse, ip, serum, single 30 mg/kg i.p.
[11] = mouse, ip, spleen, single 30 mg/kg i.p.

Compound: O=C(NC(c1ccccc1)C1CCCCN1)c1cccc(C(F)(F)F)c1Cl [SSR504734, 2-chloro-N-[(S)-phenyl[(2S)-piperidin-2-yl]methyl]-3-trifluoromethyl benzamide monohydrochloride]
- AUClast ([1]; adipose, single 30 mg/kg i.p.): 3347.89 µg·min/mL (g tissue)
- AUClast ([1]; brain, single 30 mg/kg i.p.): 1137.50 µg·min/mL (g tissue)
- Kp (tissue-to-serum partition coefficient, AUClast(tissue)/AUClast(serum)) ([1]; brain, single 30 mg/kg i.p., 30 mg/kg): 3.05
- AUClast ([1]; gut, single 30 mg/kg i.p.): 10606.43 µg·min/mL (g tissue)
- AUClast ([1]; heart, single 30 mg/kg i.p.): 4841.83 µg·min/mL (g tissue)
- AUClast ([1]; kidneys, single 30 mg/kg i.p.): 16781.00 µg·min/mL (g tissue)
- AUClast ([1]; liver, single 30 mg/kg i.p.): 8821.36 µg·min/mL (g tissue)
- AUClast ([1]; lungs, single 30 mg/kg i.p.): 33485.57 µg·min/mL (g tissue)
- Kp ([1]; mouse, adipose (relative to serum), ip, 30 mg/kg, adipose, single 30 mg/kg i.p., read-out: Kp (tissue-to-serum partition coefficient)): 8.98
- Kp ([1]; mouse, brain (relative to serum), ip, 30 mg/kg, brain, single 30 mg/kg i.p., read-out: Kp (tissue-to-serum partition coefficient, AUClast(tissue)/AUClast(serum))): > 3
- Kp ([1]; mouse, gut (relative to serum), ip, 30 mg/kg, gut, single 30 mg/kg i.p., read-out: Kp (tissue-to-serum partition coefficient)): 28.5
- Kp ([1]; mouse, heart (relative to serum), ip, 30 mg/kg, heart, single 30 mg/kg i.p., read-out: Kp (tissue-to-serum partition coefficient)): 13
- Cmax ([1]; mouse, ip, 30 mg/kg i.p., assuming brain tissue density of ∼1 g/mL, read-out: Cmax in the brain tissue): 5150 ng/mL
- MRT [1, 3]: 1.37 h
- Tmax [1, 3]: 0.0833 h
- half-life [1, 3]: 1.33 h
- Cmax ([1]; mouse, ip, adipose, single 30 mg/kg i.p., read-out: Cmax): 65700 ng/g
- MRT [1, 4]: 2.36 h
- Tmax [1, 4]: 0.5 h
- half-life [1, 4]: 1.75 h
- Cmax ([1]; mouse, ip, brain, single 30 mg/kg i.p., read-out: Cmax): 5150 ng/g
- CL/F ([1]; mouse, ip, from serum vs time profile, 30 mg/kg i.p., read-out: apparent clearance (CL/F)): 77.8 mL/min/kg
- Vd/F ([1]; mouse, ip, from serum vs time profile, 30 mg/kg i.p., read-out: volume of distribution during the terminal phase (Vz/F)): 11.1 L/kg
- MRT [1, 5]: 1.96 h
- Tmax [1, 5]: 0.0833 h
- half-life [1, 5]: 1.73 h
- Cmax ([1]; mouse, ip, gut, single 30 mg/kg i.p., read-out: Cmax): 77900 ng/g
- MRT [1, 6]: 1.68 h
- Tmax [1, 6]: 0.25 h
- half-life [1, 6]: 1.31 h
- Cmax ([1]; mouse, ip, heart, single 30 mg/kg i.p., read-out: Cmax): 38300 ng/g
- MRT [1, 7]: 2.03 h
- Tmax [1, 7]: 0.5 h
- half-life [1, 7]: 1.4 h
- Cmax ([1]; mouse, ip, kidneys, single 30 mg/kg i.p., read-out: Cmax): 93500 ng/g
- MRT [1, 8]: 1.76 h
- Tmax [1, 8]: 0.0833 h
- half-life [1, 8]: 1.52 h
- Cmax ([1]; mouse, ip, liver, single 30 mg/kg i.p., read-out: Cmax): 101000 ng/g
- MRT [1, 9]: 2.6 h
- Tmax [1, 9]: 0.25 h
- half-life [1, 9]: 2.04 h
- Cmax ([1]; mouse, ip, lungs, single 30 mg/kg i.p., read-out: Cmax): 147000 ng/g
- MRT [1, 10]: 1.86 h
- Tmax [1, 10]: 0.25 h
- half-life [1, 10]: 1.65 h
- Cmax ([1]; mouse, ip, serum, single 30 mg/kg i.p., read-out: Cmax): 3000 ng/mL
- MRT [1, 11]: 1.66 h
- Tmax [1, 11]: 0.25 h
- half-life [1, 11]: 1.6 h
- Cmax ([1]; mouse, ip, spleen, single 30 mg/kg i.p., read-out: Cmax): 193000 ng/g
- Kp ([1]; mouse, kidneys (relative to serum), ip, 30 mg/kg, kidneys, single 30 mg/kg i.p., read-out: Kp (tissue-to-serum partition coefficient)): 45
- Kp ([1]; mouse, liver (relative to serum), ip, 30 mg/kg, liver, single 30 mg/kg i.p., read-out: Kp (tissue-to-serum partition coefficient)): 23.7
- Kp ([1]; mouse, lungs (relative to serum), ip, 30 mg/kg, lungs, single 30 mg/kg i.p., read-out: Kp (tissue-to-serum partition coefficient)): 89.8
- Kp ([1]; mouse, spleen (relative to serum), ip, 30 mg/kg, spleen, single 30 mg/kg i.p., read-out: Kp (tissue-to-serum partition coefficient)): 50
- AUClast ([1]; serum, single 30 mg/kg i.p.): 372.73 µg·min/mL (g tissue)
- AUClast ([1]; spleen, single 30 mg/kg i.p.): 18616.26 µg·min/mL (g tissue)
- serum concentration of IFN-γ [2]: no statistically significant differences
- serum concentration of IL-1β [2]: significant increase
- serum concentration of IL-6 [2]: significant increase
- serum concentration of IL-10 [2]: significant increase
- serum concentration of IL-18 [2]: no statistically significant differences
- serum concentration of TNFα [2]: significant increase
- serum concentration of TRL4 [2]: significant increase
